Structures can show the parent of a compound that is named as a salt.
How the values were obtained:
[1] = tested on: U87MG tumors; test: Human U87MG glioblastoma xenograft tumor model; assay type: in vivo, female nude mice (BALB/cA nu/nu); settings: 21 days; for decrease of mean tumor volume (TGI): Day 21, vs vehicle
Protocol: In a pilot study, the efficacy of compounds disclosed herein was evaluated in a standard murine model of tumorigenesis. Human tumor cells were generated with human glioblastoma cells (U87MG cells, ATCC) and were grown as subcutaneous tumors in 6-7 week old female nude mice (BALB/cA nu/nu, Shanghai SLAC Laboratory Animal, Co.) (n=10 for vehicle group, n=8 for each dosing group). When tumors reached a volume of 100-200 mm^3, animals were randomly divided into vehicle control (2% HPMC+1% Tween-80 in water) and compound groups. Subsequent administration of compound by oral gavage (10-100 mpk/dose, dissolved in purified water or 2% HPMC+1% Tween-80 in water) begins anywhere from day 0 to day 15 post tumor cell challenge and generally continues with once a day for the duration of the experiment.
(§1) Progression of tumor growth is assessed by tumor volumes and recorded as a function of time. The long (L) and short (W) axes of the subcutaneous tumors were measured with calipers twice weekly, and the tumor volume (TV) calculated as (L×W^2)/2). TGI was calculated from the difference between the median tumor volumes of vehicle-treated and drug-treated mice, expressed as a percentage of the median tumor volume of the vehicle-treated control group, by the following relation:
(§2) Initial statistical analysis is done by repeated measures analysis of variance (RMANOVA). Followed by Scheffe psot hoc testing for multiple comparisons. Vehicle alone (2% HPMC+1% Tween-80, or the like) is the negative control. Compounds disclosed herein were generally active at or less than 100 mpk.

[2] = tested on: MKN45 tumors; test: Human MKN45 gastric adenocarcinoma xenograft tumor model; assay type: in vivo, female nude mice (BALB/cA nu/nu); settings: for decrease of mean tumor volume (TGI): Day 18, vs vehicle
Protocol: Xenografts were also generated with human gastric tumor cells (MKN45 cells, ATCC) and were grown as subcutaneous tumors in 6-7 week old female nude mice (BALB/cA nu/nu, Shanghai SLAC Laboratory Animal, Co.) (n=10 for vehicle group, n=8 for each dosing group). When tumors reached a volume of 60-150 mm^3, animals were randomly divided into vehicle control (2% HPMC+1% Tween-80 in water) and compound groups. Subsequent administration of compound by oral gavage (10-60 mpk/dose, dissolved in purified water or 2% HPMC+1% Tween-80 in water) begins anywhere from day 0 to day 15 post tumor cell challenge and generally continues with once a day for the duration of the experiment.
as §1, §2

Row | Compound | decrease of mean tumor volume (TGI) ([1]; 10 mg/kg p.o. QD) [%] | decrease of mean tumor volume (TGI) ([1]; 30 mg/kg p.o. QD) [%] | decrease of mean tumor volume (TGI) ([1]; 100 mg/kg p.o. QD) [%] | inhibition of growth of U87MG tumors ([1]; all doses: 10, 30 and 100 mg/kg p.o. QD) | decrease of mean tumor volume (TGI) ([2]; 10 mg/kg p.o. QD, 18 days) [%] | decrease of mean tumor volume (TGI) ([2]; 30 mg/kg p.o. QD, 18 days) [%] | decrease of mean tumor volume (TGI) ([2]; 60 mg/kg p.o. QD (dosed from days 0-10 and days 13-18)) [%] | inhibition of growth of MKN45 tumors ([2]; all doses: 10, 30 and 60 mg/kg p.o. QD, 18 days)
1 | COc1ccc2c(Oc3ccc(NC(=O)c4c(C)n(C[C@@H](C)OC(=O)CN)n(-c5ccccc5)c4=O)cc3F)ccnc2c1 [Example 53, (R)-1-(4-(3-fluoro-4-(7-methoxyquinolin-4-yloxy)phenylcarbamoyl)-5-methyl-3-oxo-2-phenyl-2,3-dihydropyrazol-1-yl)propan-2-yl 2-aminoacetate hydrochloride] | 47 | 76 | 99 | statistically significant, dose-dependent inhibition | – | – | – | –
2 | Cc1c(C(=O)Nc2ccc(Oc3ccnc4cc(OCC5(OC(=O)CN)CC5)ccc34)c(F)c2)c(=O)n(-c2ccccc2)n1C [Example 72, 1-((4-(4-(2,3-dimethyl-5-oxo-1-phenyl-2,5-dihydro-1H-pyrazole-4-carboxamido)-2-fluorophenoxy)quinolin-7-yloxy)methyl)cyclopropyl 2-aminoacetate hydrochloride] | – | – | – | – | 29 | 62 | 87 | statistically significant, dose-dependent inhibition
